Experimental data taken from PMC11793105, “A kalihinol analog disrupts apicoplast function and vesicular trafficking in P. falciparum malaria” (Science (New York, N.Y.), 2024).

Assays:
[1] = tested on: P. falciparum cultures; test: Exponential killing rate at IC80; format: cell-based, Plasmodium falciparum; settings: triplicate
[2] = tested on: P. falciparum 3D7 parasites; test: Isopentenyl pyrophosphate (IPP) rescue assay; format: cell-based, Plasmodium falciparum; settings: drug at IC80 for one IEC before IPP (200 μM)
Excerpt: Fig. 2. […] Nuclei are stained with 4’,6-diamidino-2-phenylindole (DAPI; blue). […] (B) Dose-dependent interactions between MED6-189 (blue) and various antimalarials with known mechanisms of action (red). […] The regression line represents a nonlinear regression (variable slope with four parameters), with significant differences considered if P < 0.05. […] Isobologram curves are expected to be parallel to the diagonal for additive drug pairs, concave for synergistic drug pairs, and convex for antagonistic drug pairs. […] The analysis was performed using a two-way ANOVA, n = 3, with P < 0.05 significance.
IPP is a product of the MEP/DOXP pathway, and its supplementation reduces susceptibility to MEP inhibitors. […] Parasites were drugged at 80% inhibitory concentrations (IC80) for one IEC before IPP (200 μM) supplementation.

## O=CN(O)CCCP(=O)(O)O [fosmidomycin, reference compound]
[1]; at IC80, 48 HPS
  Exponential killing rate k = (1/t)* log10(N0/Nt): 0.007019
[1]; at IC80, 72 HPS
  Exponential killing rate k = (1/t)* log10(N0/Nt): 0.01081
[1]; at IC80, 100 HPS
  Exponential killing rate k = (1/t)* log10(N0/Nt): 0.008797
[2]
  rescue of parasites by IPP supplementation: survived the second IEC and initiated a third cycle
